Assay results taken from PubChem BioAssay AID330 (DTP/NCI, 2004).
“And” between values parts separate entries of the source, which are not always exact repeats. Identical values can stand only once. Toxic doses and inconclusive results are not listed.

Tested on: P388 leukemia ip, CD2F1 mice, survival T/C
Assay: NCI In Vivo Anticancer Drug Screen. Data for tumor model P388 Leukemia (intraperitoneal) in CD2F1 (CDF1) mice
Conditions: endpoint: median survival time, higher = longer survival
Outline: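 Mice carrying the transplanted tumor received test compound or vehicle. Survival was recorded in each group, and the value is the treated-group measurement divided by that of the vehicle-treated control group.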

[1] = dose: 60.0 mg/kg/injection, schedule: Q01DX005 (ip), vehicle: saline with Tween-80
[2] = dose: 120.0 mg/kg/injection, schedule: Q01DX005 (ip), vehicle: saline with Tween-80
[3] = dose: 240.0 mg/kg/injection, schedule: Q01DX005 (ip), vehicle: saline with Tween-80
[4] = dose: 12.5 mg/kg/injection, schedule: Q01DX009 (ip), vehicle: saline with Tween-80
[5] = dose: 25.0 mg/kg/injection, schedule: Q01DX009 (ip), vehicle: Klucel (hydroxypropylcellulose) (HPC)
[6] = dose: 25.0 mg/kg/injection, schedule: Q01DX009 (ip), vehicle: saline with Tween-80
[7] = dose: 50.0 mg/kg/injection, schedule: Q01DX009 (ip), vehicle: Klucel (hydroxypropylcellulose) (HPC)
[8] = dose: 50.0 mg/kg/injection, schedule: Q01DX009 (ip), vehicle: saline with Tween-80
[9] = dose: 100.0 mg/kg/injection, schedule: Q01DX009 (ip), vehicle: saline with Tween-80
[10] = dose: 50.0 mg/kg/injection, schedule: Q01DX005 (ip), vehicle: saline with Tween-80
[11] = dose: 100.0 mg/kg/injection, schedule: Q01DX005 (ip), vehicle: saline with Tween-80
[12] = dose: 200.0 mg/kg/injection, schedule: Q01DX005 (ip), vehicle: saline with Tween-80
[13] = dose: 50.0 mg/kg/injection, schedule: Q01DX005 (ip), vehicle: Klucel (hydroxypropylcellulose) (HPC)
[14] = dose: 100.0 mg/kg/injection, schedule: Q01DX005 (ip), vehicle: Klucel (hydroxypropylcellulose) (HPC)
[15] = dose: 200.0 mg/kg/injection, schedule: Q01DX005 (ip), vehicle: Klucel (hydroxypropylcellulose) (HPC)
[16] = dose: 12.5 mg/kg/injection, schedule: Q01DX009 (ip), vehicle: Klucel (hydroxypropylcellulose) (HPC)

In the case of `CCOC(=O)Nc1ccc(C2SCCN2C(=O)Nc2ccc(Cl)cc2)cc1` (stereo not given), the T/C [1] was 100 % of control, the T/C [2] was 91 % of control and the T/C [3] was 91 % of control.
`O=C1NC(Cc2ccccc2)C(=O)NC1Cc1ccccc1` (stereo not given) was tested, and the T/C (dose: 3.13 mg/kg/injection, schedule: Q01DX009 (ip), vehicle: saline with Tween-80) was 86 % of control, the T/C (dose: 6.25 mg/kg/injection, schedule: Q01DX009 (ip), vehicle: saline with Tween-80) was 100 % of control and the T/C [4] was 107 % of control. The T/C [5] was 101 % of control, the T/C [6] was 103 % of control and the T/C [7] was 104 % of control.
For `N=c1ccccn1CCO`, the T/C (dose: 60.0 mg/kg/injection, schedule: Q01DX005 (ip), vehicle: saline) was 94 % of control and the T/C (dose: 120.0 mg/kg/injection, schedule: Q01DX005 (ip), vehicle: saline) was 99 % of control.
`NC(c1cccc([N+](=O)[O-])c1)S(=O)(=O)O` (stereo not given) was tested, and the T/C (dose: 100.0 mg/kg/injection, schedule: Q04DX002 (ip), vehicle: saline) was 99 % of control, the T/C (dose: 200.0 mg/kg/injection, schedule: Q04DX002 (ip), vehicle: saline) was 105 % of control and the T/C (dose: 400.0 mg/kg/injection, schedule: Q04DX002 (ip), vehicle: saline) was 105 % of control.
`O=NN(CCCl)C(=O)Oc1ccc(Cl)cc1Cl` was tested, and the T/C (dose: 3.12 mg/kg/injection, schedule: Q01DX001 (ip), vehicle: saline with Tween-80) was 106 % of control, the T/C (dose: 6.25 mg/kg/injection, schedule: Q01DX001 (ip), vehicle: saline with Tween-80) was 118 % of control and the T/C (dose: 25.0 mg/kg/injection, schedule: Q01DX001 (ip), vehicle: saline with Tween-80) was 123 % of control. For the same compound, the T/C (dose: 50.0 mg/kg/injection, schedule: Q01DX001 (ip), vehicle: saline with Tween-80) was 109 % of control, the T/C (dose: 100.0 mg/kg/injection, schedule: Q01DX001 (ip), vehicle: saline with Tween-80) was 122 % of control and the T/C (dose: 150.0 mg/kg/injection, schedule: Q01DX001 (ip), vehicle: saline with Tween-80) was 118 % of control.
For `COC(=O)C1=C(C)NC(C)=C(C(=O)OC)C(N2C(=O)CCC2=O)C1` (stereo not given), the T/C [4] was 100 % of control, the T/C [6] was 91 % of control and the T/C [8] was 88 % of control. The T/C [9] was 88 % of control.
In the case of `CN1CCCC2Cc3ccccc3CC21` (stereo not given), the T/C (dose: 6.25 mg/kg/injection, schedule: Q04DX002 (ip), vehicle: Klucel (hydroxypropylcellulose) (HPC)) was 97 % of control, the T/C (dose: 12.5 mg/kg/injection, schedule: Q04DX002 (ip), vehicle: Klucel (hydroxypropylcellulose) (HPC)) was 102 % of control and the T/C (dose: 25.0 mg/kg/injection, schedule: Q04DX002 (ip), vehicle: Klucel (hydroxypropylcellulose) (HPC)) was 104 % of control. For the same compound, the T/C (dose: 100.0 mg/kg/injection, schedule: Q04DX002 (ip), vehicle: Klucel (hydroxypropylcellulose) (HPC)) was 101 % of control.
`O=C1C=C2c3ccccc3CC(C(=O)O)C2CC1` (stereo not given) was tested, and the T/C [1] was 100 % of control, the T/C [2] was 100 % of control and the T/C [3] was 102 % of control.
In the case of `Cn1c2ccccc2c(=S)c2cc(NC(=O)CCCCC(=O)Nc3ccc4c(c3)c(=S)c3ccccc3n4C)ccc21`, the T/C [10] was 110 % of control, the T/C [11] was 98 % of control and the T/C [12] was 104 % of control.
`COc1c(OC)c(C2(O)C(=O)N(C)c3ccccc32)c(OC)c(OC)c1C1(O)C(=O)N(C)c2ccccc21` (stereo not given) was tested, and the T/C [1] was 88 % of control, the T/C [2] was 87 % of control and the T/C [3] was 87 % of control.
For `CC(C)(C)N=C(Nc1ccccc1Cl)C(Cl)CSc1ccccc1` (stereo not given), the T/C [13] was 100 % of control and 102 % of control, the T/C [14] was 100 % of control and 98 % of control and the T/C [15] was 105 % of control.
`CC(=O)c1cc([N+](=O)[O-])c(N)s1` was tested, and the T/C [16] was 111 % of control, the T/C [5] was 111 % of control and the T/C [7] was 95 % of control. For the same compound, the T/C (dose: 100.0 mg/kg/injection, schedule: Q01DX009 (ip), vehicle: Klucel (hydroxypropylcellulose) (HPC)) was 107 % of control.
`CSc1nc2ccc(NC(=O)CCC(=O)O)cc2s1` was tested, and the T/C (dose: 6.25 mg/kg/injection, schedule: Q01DX009 (ip), vehicle: Klucel (hydroxypropylcellulose) (HPC)) was 104 % of control, the T/C [16] was 101 % of control and the T/C [5] was 107 % of control.
With `CN1CCN(C(=S)C(O)(c2ccccc2)c2ccccc2)CC1` the T/C (dose: 100.0 mg/kg/injection, schedule: Q01DX001 (ip), vehicle: Klucel (hydroxypropylcellulose) (HPC)) was 105 % of control, the T/C (dose: 200.0 mg/kg/injection, schedule: Q01DX001 (ip), vehicle: Klucel (hydroxypropylcellulose) (HPC)) was 105 % of control and the T/C (dose: 400.0 mg/kg/injection, schedule: Q01DX001 (ip), vehicle: Klucel (hydroxypropylcellulose) (HPC)) was 100 % of control.
With `CCC[As](CCC)SCC1OC(OC(C)=O)C(OC(C)=O)C(OC(C)=O)C1OC(C)=O` (stereo not given) the T/C [8] was 117 % of control and the T/C [9] was 110 % of control.
With `CCOC(=O)C1=CNc2c(C#N)cnn2C1(C(=O)OCC)c1cn(C)c2ccccc12` (stereo not given) the T/C (dose: 6.25 mg/kg/injection, schedule: Q01DX005 (ip), vehicle: saline with Tween-80) was 99 % of control, the T/C (dose: 12.5 mg/kg/injection, schedule: Q01DX005 (ip), vehicle: saline with Tween-80) was 95 % of control and the T/C (dose: 25.0 mg/kg/injection, schedule: Q01DX005 (ip), vehicle: saline with Tween-80) was 87 % of control.
`CCOP(=O)(N1CC1(C)C)N1CC1(C)C` (stereo not given) was tested, and the T/C (dose: 5.0 mg/kg/injection, schedule: Q01DX009 (ip), vehicle: saline) was 109 % of control, the T/C (dose: 20.0 mg/kg/injection, schedule: Q01DX009 (ip), vehicle: saline) was 159 % of control and the T/C (dose: 30.0 mg/kg/injection, schedule: Q01DX009 (ip), vehicle: saline) was 194 % of control. The T/C (dose: 50.0 mg/kg/injection, schedule: Q01DX009 (ip), vehicle: saline) was 252 % of control.
With `FC(F)(F)c1ccccc1NC(=S)SCc1ccc(Cl)cc1` the T/C (dose: 50.0 mg/kg/injection, schedule: Q01DX009 (ip), vehicle: suspension in saline) was 104 % of control, the T/C (dose: 100.0 mg/kg/injection, schedule: Q01DX009 (ip), vehicle: suspension in saline) was 101 % of control and the T/C (dose: 200.0 mg/kg/injection, schedule: Q01DX009 (ip), vehicle: suspension in saline) was 108 % of control.
For `O=C1CSC2(CCN(CCCN3c4ccccc4Sc4ccc(Cl)cc43)CC2)N1`, the T/C [8] was 98 % of control and the T/C [9] was 116 % of control.
For `O=C(OCCOc1ccc(C(F)(F)F)cc1[N+](=O)[O-])c1ccc(Cl)cc1Cl`, the T/C (dose: 15.0 mg/kg/injection, schedule: Q01DX005 (ip), vehicle: saline with Tween-80) was 90 % of control, the T/C (dose: 30.0 mg/kg/injection, schedule: Q01DX005 (ip), vehicle: saline with Tween-80) was 91 % of control and the T/C [1] was 88 % of control.
`O=Cc1ccc(N2OC3C(=O)N(c4ccccc4)C(=O)C3C2c2ccc([N+](=O)[O-])cc2)cc1` (stereo not given) was tested, and the T/C [13] was 96 % of control, the T/C [14] was 92 % of control and the T/C [15] was 97 % of control.
In the case of `O=S(=O)(SC(Cl)(Cl)Cl)c1ccc(Cl)cc1`, the T/C (dose: 12.5 mg/kg/injection, schedule: Q01DX009 (ip), vehicle: saline sonified) was 100 % of control, the T/C (dose: 25.0 mg/kg/injection, schedule: Q01DX009 (ip), vehicle: saline sonified) was 100 % of control and the T/C (dose: 50.0 mg/kg/injection, schedule: Q01DX009 (ip), vehicle: saline sonified) was 100 % of control.
For `CCCCN(CCCC)C(=N)c1c(OC)cccc1OC`, the T/C (dose: 0.78 mg/kg/injection, schedule: Q01DX005 (ip), vehicle: saline) was 104 % of control, the T/C (dose: 1.56 mg/kg/injection, schedule: Q01DX005 (ip), vehicle: saline) was 99 % of control and the T/C (dose: 3.12 mg/kg/injection, schedule: Q01DX005 (ip), vehicle: saline) was 96 % of control.
In the case of `O=C(CCl)N1c2ccccc2Sc2ccc(Cl)cc21`, the T/C (dose: 3.13 mg/kg/injection, schedule: Q01DX009 (ip), vehicle: water) was 117 % of control, the T/C (dose: 6.25 mg/kg/injection, schedule: Q01DX009 (ip), vehicle: water) was 117 % of control and the T/C (dose: 12.5 mg/kg/injection, schedule: Q01DX009 (ip), vehicle: water) was 111 % of control.
`COc1c2occc2c(OC)c2c(C)c(C(=O)OCCN3CCOCC3)oc12` was tested, and the T/C (dose: 60.0 mg/kg/injection, schedule: Q01DX005 (ip), vehicle: Klucel (hydroxypropylcellulose) (HPC)) was 96 % of control, the T/C (dose: 120.0 mg/kg/injection, schedule: Q01DX005 (ip), vehicle: Klucel (hydroxypropylcellulose) (HPC)) was 91 % of control and the T/C (dose: 240.0 mg/kg/injection, schedule: Q01DX005 (ip), vehicle: Klucel (hydroxypropylcellulose) (HPC)) was 91 % of control.
With `O=C(CCCCC(=O)Nc1ccc2[nH]c3ccccc3c(=O)c2c1)Nc1ccc2[nH]c3ccccc3c(=O)c2c1` the T/C [10] was 104 % of control, the T/C [11] was 105 % of control and the T/C [12] was 100 % of control.
